Experiments:
[1] = target: T1, Human FPPS (farnesyl diphosphate synthase) (Homo sapiens, UniProt P14324); assay: FPPS inhibition; assay type: biochemical
T1 sequence (P14324 1-419): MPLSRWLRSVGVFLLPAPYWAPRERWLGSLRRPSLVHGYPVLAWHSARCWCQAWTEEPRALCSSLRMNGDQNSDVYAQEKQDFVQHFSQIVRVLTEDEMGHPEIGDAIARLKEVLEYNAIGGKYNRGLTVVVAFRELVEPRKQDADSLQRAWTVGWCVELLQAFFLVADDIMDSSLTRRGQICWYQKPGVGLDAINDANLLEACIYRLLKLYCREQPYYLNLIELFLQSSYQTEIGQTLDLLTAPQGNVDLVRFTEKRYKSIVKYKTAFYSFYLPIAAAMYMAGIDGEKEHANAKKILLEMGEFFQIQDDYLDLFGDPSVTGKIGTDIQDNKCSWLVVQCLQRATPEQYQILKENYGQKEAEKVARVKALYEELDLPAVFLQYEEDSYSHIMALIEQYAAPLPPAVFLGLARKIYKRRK

MCF-7, SF-268, NCI-H460 = assay: Human cell growth inhibition, three cell lines together; assay type: cell-based; conditions: read-out: IC50 averaged over the three cell lines investigated
HIV-1 RT = conditions: cited from earlier work

Row | Compound | IC50 (MCF-7, SF-268, NCI-H460) [µM] | other results
1 | O=P(O)(O)C(O)(Cc1ccc(Cl)c(Cl)c1)P(=O)(O)O [Compound 5] | – | IC50 [1]: 8.5 µM
2 | O=P(O)(O)C(O)(Cc1cnc2ccccn12)P(=O)(O)O [Compound 44, minodronate] | ~5 | –
3 | O=P(O)(O)C(O)(Cn1ccnc1)P(=O)(O)O [Compound 36, zoledronate] | ~15 | –
4 | NCCC(O)(P(=O)(O)O)P(=O)(O)O [Compound 4, pamidronate] | – | inhibition of the phosphorolytic activity of RT (in words) (HIV-1 RT): competitively inhibited
5 | O=P(O)(O)C(Nc1cccc(-c2ccccc2)c1)P(=O)(O)O [Compound 3] | ~229 | activity in inhibiting NRTI excision (in words) (HIV-1 RT; previous work ref 11): some activity

— paper PMC2586422 (Bioorganic & medicinal chemistry, 2008)
